Results published in PMC4059507 (Archives of biochemistry and biophysics, 2013).
Like-named read-outs stand apart in the source and are kept apart here.

Tests used:
UGT1A9 [1] = target: T1, UGT1A9 (Homo sapiens, UniProt O60656); details: substrate inhibition model, propofol glucuronidation
T1 sequence (O60656 26-530): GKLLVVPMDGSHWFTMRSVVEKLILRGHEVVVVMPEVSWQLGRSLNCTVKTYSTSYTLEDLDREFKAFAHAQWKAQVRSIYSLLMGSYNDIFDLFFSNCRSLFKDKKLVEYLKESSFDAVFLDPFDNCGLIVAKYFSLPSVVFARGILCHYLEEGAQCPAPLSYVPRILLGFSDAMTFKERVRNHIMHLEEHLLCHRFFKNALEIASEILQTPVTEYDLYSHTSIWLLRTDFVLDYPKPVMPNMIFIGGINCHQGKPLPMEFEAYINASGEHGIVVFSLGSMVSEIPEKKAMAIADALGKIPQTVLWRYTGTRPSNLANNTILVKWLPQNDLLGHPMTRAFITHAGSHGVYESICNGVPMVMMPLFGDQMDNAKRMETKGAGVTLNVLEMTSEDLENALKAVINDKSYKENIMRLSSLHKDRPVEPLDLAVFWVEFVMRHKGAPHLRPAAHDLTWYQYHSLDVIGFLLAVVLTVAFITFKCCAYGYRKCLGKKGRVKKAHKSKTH

UGT2B7 = target: T2, UGT2B7 (Homo sapiens, UniProt P16662); details: data not shown
T2 sequence (P16662 24-529): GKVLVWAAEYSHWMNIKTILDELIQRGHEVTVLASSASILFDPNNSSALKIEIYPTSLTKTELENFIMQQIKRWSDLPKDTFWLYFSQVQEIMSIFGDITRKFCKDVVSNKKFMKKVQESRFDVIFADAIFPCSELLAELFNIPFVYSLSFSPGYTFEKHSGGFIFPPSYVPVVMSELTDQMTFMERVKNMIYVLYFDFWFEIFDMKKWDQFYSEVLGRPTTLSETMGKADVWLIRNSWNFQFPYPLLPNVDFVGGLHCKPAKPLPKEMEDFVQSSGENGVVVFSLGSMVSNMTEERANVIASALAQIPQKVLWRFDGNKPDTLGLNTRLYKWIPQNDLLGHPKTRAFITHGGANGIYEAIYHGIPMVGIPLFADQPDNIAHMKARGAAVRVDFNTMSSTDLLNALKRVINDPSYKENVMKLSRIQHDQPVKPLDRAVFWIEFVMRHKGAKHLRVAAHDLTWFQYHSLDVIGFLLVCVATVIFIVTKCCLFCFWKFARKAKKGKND

UGT1A9 [2] = target: T1, UGT1A9

In the case of `CC(C)c1cccc(C(C)C)c1O` [propofol], the Ki (UGT1A9 [1]; human hepatocytes treated with UGT1A9 siRNA) is reported as 448 ± 203 µM, the Ki (UGT1A9 [1]; human hepatocytes treated with UGT2B7 siRNA) is reported as 199 ± 88.9 µM and the Ki (UGT1A9 [1]; human hepatocytes, OPTI Only) is reported as 362 ± 31.3 µM. It also gave a Ki (UGT1A9 [1]; human hepatocytes, TR Only) of 521 ± 46.3 µM.

For propofol glucuronide, the “inhibition of UGT2B7-catalyzed morphine glucuronidation” value (UGT2B7) was “No inhibition”, the UGT1A9 activity remained (UGT1A9 [2]) was “greater than 60%” and the “inhibition of 2,6-dimethylphenol glucuronidation” value (UGT1A9 [2]) was “only weak inhibition”.
